Read-outs that look alike come from different tables or passages of the source.

Test [1] deals with Bacillus subtilis JMRC:STI:10880. Description: agar diffusion inhibition zone test. Type of test: cell-based. The conditions noted are these: Bacillus subtilis; 1o, 2o 1,000 µg/ml in DMSO; ciprofloxacin 5 µg/ml; solvent DMSO 12P; read-out: inhibition zone diameter, Bacillus subtilis (B1). As to the method:
(§1) The following organisms were tested at the Hans Knöll Institute in Jena, for their susceptibility to the compounds 1o and 2o: Bacillus subtilis JMRC:STI:10880, Staphylococcus aureus JMRC:ST:10760, Escherichia coli JMRC:ST:33699, Pseudomonas aeruginosa JMRC:ST:33772, Pseudomonas aeruginosa JMRC:ST:337721, Staphylococcus aureus JMRC:ST:33793 (multi-resistant), Enterococcus faecalis JMRC:ST:33700 (Vancomycin-resistant), Mycobacterium vaccae JMRC:STI:10670, Sporobolomyces salmonicolor (Basidiomycetes yeast) JMRC:ST:35974, Candida albicans (Ascomycetes yeast) JMRC:STI:25000, Penicillium notatum JMRC:STI:50164.
(§2) The bacteria were propagated in Mueller Hinton Broth (Oxoid)[49]. Yeast was propagated in YPD (yeast extract peptone dextrose): 1% yeast extract, 10 g; 2% peptone, 20 g; 2% agar, 20 g; 2% dextrose (glucose), 20 g; Sigma-Y1375. All bacteria and yeast suspensions were freshly made. The cultures were incubated at 37 °C for 16 h. Afterwards, the bacteria concentration from each culture was determined, and 34 ml of nutrient agar was loaded with 10^7 cells. These cultures were stored at 6-8 °C and could be used for seven days for the preparation of test plates. 34 ml of nutrient agar was liquefied and inoculated with the calculated amount of inoculum bacteria suspension at 48–50 °C, a temperature suitable for vegetative forms of bacteria. The inoculated nutrient media (34 ml each) were immediately poured into the prepared test plates (3 mm layer). With a punching device, 12 holes per test plate were punched out. For inhibiting bacterial growth, ciprofloxacin was used as a reference substance. The test substances were dissolved in distilled water, and 5 μg ml^−1 and 50 μl was added to each bacterial culture. For inhibition of fungal growth, amphotericin B served as the reference substance. The test substances were diluted to 10 μg ml^−1 in DMSO/methanol; 50 μl was added to each culture.
(§3) Configuring the test plate; volumes/punched hole: 50 μl; test solutions/test plate: 1 × 50 μl reference substance. Test plates were cultivated for 18 h at 37 °C. Analysis: Reading the inhibition zones (IZ): As IZ, the zone in which no growth can be determined with the naked eye is measured; the tiniest colonies on the edge of the inhibition zone were therefore not taken into consideration. The diameter (φ) of the IZ is measured in mm. The analysis of IZ φ is carried out internationally with the help of statistic procedures, especially regression analysis. With each test approach, the reference substance was brought along as a control; if there were deviations from allowed IZ φ, the test was repeated.
(§4) The inhibition of bacterial growth was determined using bacterial cultures grown in Müller-Hinton Bouillon, which was configured at barely visible opacity with the McFarland Standard Nr. 0.5, which indicates a bacterial density of 10^8 ml^−1. This bacterial suspension was diluted with Müller-Hinton Bouillon using 2-fold dilution series in the agar diffusion test.
(§5) Analysis: The growth in the inhibition zones around the holes containing active substances is thereby compared with the growth in the growth control (no active substance). Bacterial growth was determined according to four measurements: p=presence of colonies in the inhibition zone, P=presence of many colonies in the inhibition zone, A=indication of inhibition, F=facilitation.

Test [2] deals with Enterococcus faecalis JMRC:ST:33700 (Vancomycin-resistant). Briefly: agar diffusion inhibition zone test. Type of test: cell-based. The conditions noted are these: 1o, 2o 1,000 µg/ml in DMSO; ciprofloxacin 5 µg/ml; solvent DMSO 12P. How it is done:
as §1, §2, §3, §4, §5
For orientation: In agar diffusion tests the substance spreads into inoculated agar from a disc or well.

Test [3] relates to Mycobacterium vaccae JMRC:STI:10670. Description: agar diffusion inhibition zone test. Type of test: cell-based. The conditions noted are these: Mycolicibacterium vaccae; 1o, 2o 1,000 µg/ml in DMSO; ciprofloxacin 5 µg/ml; solvent DMSO 13P; read-out: inhibition zone diameter, Mycobac. vaccae (M4). As to the method: as §1, §2, §3, §4, §5
Test [4] relates to Pseudomonas aeruginosa JMRC:ST:33772. Description: agar diffusion inhibition zone test. Type of test: cell-based. The conditions noted are these: Pseudomonas aeruginosa; 1o, 2o 1,000 µg/ml in DMSO; ciprofloxacin 5 µg/ml; solvent DMSO 13P; read-out: inhibition zone diameter, Pseudomonas aeruginosa JMRC:ST:33772 (B7). As to the method:
as §1, §2, §3, §4, §5

For test [5], the system named is Staphylococcus aureus JMRC:ST:10760. Description: agar diffusion inhibition zone test. Type of test: cell-based. The conditions noted are these: Staphylococcus aureus; 1o, 2o 1,000 µg/ml in DMSO; ciprofloxacin 5 µg/ml; solvent DMSO 12P; read-out: inhibition zone diameter, Staphylococcus aureus (B3). As to the method:
as §1, §2, §3, §4, §5

Test [6] deals with Staphylococcus aureus JMRC:ST:33793 (multi-resistant). Briefly: agar diffusion inhibition zone test. The conditions noted are these: Staphylococcus aureus, MRSA; 1o, 2o 1,000 µg/ml in DMSO; ciprofloxacin 5 µg/ml; solvent DMSO 12P; read-out: inhibition zone diameter, MRSA Staph. aureus (R9). Type of test: cell-based. As to the method:
as §1, §2, §3, §4, §5

In test [7] the test system is P. falciparum (strain 3D7). The conditions noted are these: cited from earlier work.
The next test has as its system P. falciparum strain Dd2. The arrangement: method as in PMID 24348249. The conditions noted are these: chloroquine-resistant strain Dd2; cited from earlier work.
The next test deals with P. falciparum NF54. Description: IC50 speed assay. Type of test: cell-based, Plasmodium falciparum. The conditions noted are these: Plasmodium falciparum. How it is done: To assess the rapidity of growth inhibition induced by the steroid compounds, the so-called IC50 speed assay[16] was conducted for compound 1o on P. falciparum NF54 (Fig. 2a,b).
The target of test [8] is haem (FeIIIPPIX, π-π dimer). Briefly: spectrophotometric titration of haematin π-π dimer. The conditions noted are these: absorption spectrophotometric titration, pH 7.5; read-out: Dissociation Constant KD of haematin-drug complex. Type of test: binding.
Another test relates to haem. Briefly: ESI-MS collision-induced dissociation of haem adducts. Type of test: binding. The conditions noted are these: 50 µM haem and 50 µM substrate. As to the method: Compound Molar Adduct DV50 Bottom Dissociation mass [Haem+S] (V) plateau Constant
Supplementary Table 7. ESI-MS-CID data (m/z, calculated DV50 = dissociation voltage at 50% and % bottom plateau) of the [haematin-drug]+ adducts and dissociation constants (KD, µM) of the haematin-drug complexes measured with absorption spectrophotometric titrations.
Conditions: 50 µM haem and 50 µM substrate in H2O/CH3CN (5/95) + 0.1% formic acid.
Stability responses of the haem substrate adduct were obtained via ESI-CID experiments.
Positive mode; fragmentor voltage from 20 V to 400 V with 20 V increments. […]
- 41/120 g), and complete dissolution was achieved using an ultrasonic bath. All solutions were protected from daylight to avoid any photochemical degradation. All the physiochemical measurements were carried out at 25.0(2) °C. […]
Electrospray mass spectrometric measurements stopping point
Electrospray mass spectra of the haem complexes were obtained with an Agilent Technologies 6120 quadrupole equipped with an electrospray (ESI) interface. For

Test [9] deals with hGrx1-roGFP2 in P. falciparum 3D7. Description: cytosolic glutathione redox sensor in parasites. The conditions noted are these: 100 nM, 24 h. Type of test: cell-based, Plasmodium falciparum. How it is done:
To further study the mechanism of action of the steroid compounds and evaluate the potential involvement of redox stress, compound 1o was tested in cell culture on the chloroquine-sensitive P. falciparum 3D7 strain expressing the cytosolic glutathione redox sensor hGrx1-roGFP2 (Supplementary Note 2). […]
signals at 405/475 nm were calculated and plotted against time and/or concentration of compound 1o or redox active compounds. Data from three independent experiments were […]
100 µM for 4 h and 24 h incubations. Transfection of the Pf3D7 strain with the redox sensor was carried out, and the parasites were cultured as described under constant drug pressure with 5 nM WR99210 (Jacobus Pharmaceuticals, New Jersey, USA).45,46 P. falciparum trophozoites were enriched via magnet separation.47 Parasitemia was counted by using Giemsa-stained blood smears. The IC50 of compound 1o on P. falciparum 3D7 asexual blood stages was verified to be about 5 nM in an additional 72 h [3H] incorporation assay45 directly before the experiment. The effect of compound 1o on P. falciparum was investigated in 4 h and 24 h incubations. For 4 h experiments, trophozoite stage parasites (26-30 h post invasion) of 3D7[hGrx1-roGFP2] (6-8% parasitemia) were magnetically enriched (Miltenyi Biotec, Germany), counted by using the improved Neubauer hemocytometer (Brand GmbH, Germany), and returned to cell culture (at 0.5 x 10^6 trophozoites/µl) for at least 1 h to recover.
1.0 x 10^6 cells in 100 µl cell culture medium were placed into LoBind tubes (Eppendorf) for 4 h incubation experiments. The parasites were treated with compound 1o at 50 x, and 100 x IC and with mefloquine (MQ) as a standard antimalarial drug at 1 µM (IC = 8 nM)45 for 4 h […]
for 15 min at 37 °C. For 24 h experiments, a 5 ml culture (6-8% parasitemia) of ring stage parasites (6-10 h post invasion) was treated with compound 1o at 4 x, 10 x, 20 x IC50 and with 100 nM MQ. Prior to enrichment, cysteines were blocked with 2 mM NEM. For 4 h and 24 h experiments, cells were washed after incubation with pre-warmed Ringer’s solution […]
Hepes, 1 mM NaH2PO4, pH 7.4) and were seeded onto poly-L-lysine-coated µ-slides VI (Ibidi, Martinsried, Germany). A Leica confocal system TCS SP5 inverted microscope equipped with the objective HCX PL APO 63.0x1.30 GLYC 37 °C UV connected to a 37 °C temperature chamber was used. The argon laser power was set to 20%; scanning was performed at 400 Hz frequency and at a 512 × 512 pixel resolution. The smart gain and […]
smart offset were 950 V and -0.9%, respectively. With a sequential scan, we excited the sensor at 405 nm and at 488 nm and detected emissions at 500-550 nm. Laser intensity for both lines was adjusted to match the full dynamic range of the probe to the dynamic range of the detector (405 nm: 12%, 488 nm: 4%). Autofluorescence images were simultaneously taken at ex 405 nm / em 430-450 nm and individually defined together with the background for every image, but no fluorescence signal could be detected. All experiments included non- […]
and 10 mM DTT (2 min incubation), respectively, prior to blocking with NEM. Only parasites showing fluorescent signals at both 405 and 488 nm excitation and an intact host cell were chosen for analysis. Each experiment was carried out three times. At least 10 parasites were analyzed, resulting in at least 30 experimental values per incubation. The Leica LAS AF Lite software for fluorescence analysis was used. The 405/488 nm ratio was calculated. The obtained ratio values were normalized to the control ratio value, which was set to 100. The graphs were plotted using the GraphPad Prism 5 software (San Diego, CA, USA). One way-ANOVA test with 95% confidence intervals with the Dunnett’s Multiple Comparison Test was applied for statistical analysis of significance (*, p < 0.05; **, p < 0.01; ***, p < 0.001). […]
with 1 µM MQ. 24 h incubation (Supplementary Figure 8 panel B) with compound 1o resulted in a higher increase of the fluorescence ratio in a concentration-dependent manner. […]

The mark [10] stands for this setting: same methods (72 h 3H-hypoxanthine incorporation assay), read-out: IC50 on 3D7.

On to `O=C(O)c1cn(C2CC2)c2cc(N3CCNCC3)c(F)cc2c1=O` [Ciprofloxacin, ciprofloxacin, reference compound], for which the zone of inhibition at 5 µg/mL in test [1] is 31 mm; in [3], 21 mm; in [4], 27 mm; in test [5], 19 mm; in test [6], 0 mm. Also, in test [2], the inhibition zone diameter, VRSA Enteroc. faecalis (R10) came out at 16 mm.

In the case of `C[C@@H]1CC[C@H]2[C@@H](C)C(=O)O[C@@H]3O[C@@]4(C)CC[C@@H]1[C@]32OO4` [artemisinin], the results for the half-maximal inhibitory concentration (IC50) (in test [7] (setting [10]); in the test with P. falciparum strain Dd2) were 17.3 nM and 20.4 nM, respectively.

For the molecule `CCN(CC)CCCC(C)Nc1ccnc2cc(Cl)ccc12` (stereo not drawn) [chloroquine], the half-maximal inhibitory concentration (IC50) is 8.3 ± 2.1 nM with P. falciparum NF54 (NF54, 24 h, read-out: IC50 24 h); 7.5 ± 0.9 nM in the test on P. falciparum NF54 (NF54, 48 h, read-out: IC50 48 h); 7.4 ± 1.1 nM in the test with P. falciparum NF54 (NF54, 72 h, read-out: IC50 72 h); 8.6 nM in [7] (setting [10]); 90.2 nM in the test on P. falciparum strain Dd2. Besides, in test [8], the Kd came to 1300 nM. For the same molecule, the “DV50 (dissociation voltage at 50%) of haem adduct” value in the test on haem (ESI-CID, 20 V to 400 V) is 201 V. Moreover, in the test with haem (fragmentor voltage 400 V), the “Bottom plateau (adduct remaining at 400 V)” value is listed as 0%.

As to `OC(c1cc(C(F)(F)F)nc2c(C(F)(F)F)cccc12)C1CCCCN1` (stereo not drawn) [mefloquine, reference compound], in test [9], the “change of 405/488 nm fluorescence ratio” value was 1.5 fold. In addition, in [7] (read-out: IC50 of mefloquine), the half-inhibitory concentration (IC50) is 8 nM.

As usually defined, the IC50 is the point on the concentration scale where inhibition reaches its midpoint. One may read the Kd as the constant that tells how readily two partners part at equilibrium.
